Here are results for 2 compounds from publication PMC7027498, “A small molecule chaperone rescues the stability and activity of a cancer‐associated variant of NAD(P)H:quinone oxidoreductase 1 in vitro” (Febs Letters, 2019).

In test [1] the target is T1, NQO1 WT (NAD(P)H:quinone oxidoreductase 1) (Homo sapiens, UniProt P15559).
T1 construct: codon-optimised gene in pET28a, E. coli; FAD-containing homodimer
Put plainly: crystal structure, […] Å. The note with it: co-crystal with BPPSA; FAD in all four chains. The test is classed as binding.

The target of test [2] is T2, NQO1 WT (NAD(P)H:quinone oxidoreductase 1) (Homo sapiens, UniProt P15559, P187S).
T2 construct: codon-optimised gene in pET28a, E. coli; FAD-containing homodimer
Put plainly: isothermal titration calorimetry. The test is classed as binding. The note with it: read-out: dissociation constant. An excerpt: (§1) isothermal titration calorimetry on NQO1 WT (NAD(P)H:quinone oxidoreductase 1) | dissociation constants for the binding of BPPSA to the wild‐type and P187S variant

The target in test [3] is T1, NQO1 WT (NAD(P)H:quinone oxidoreductase 1). Put plainly: isothermal titration calorimetry. The test is classed as binding. The note with it: read-out: dissociation constant.
Description: as §1

Test [4] shares this target. Put plainly: NADH-menadione reductase assay, absorbance at […] nm. It is filed as biochemical.
Test [5] addresses T2, NQO1 WT (NAD(P)H:quinone oxidoreductase 1). As to the kind of experiment: ThermoFAD thermal shift. The test is classed as binding. The conditions noted are these: 2 mM BPPSA, 50 mM HEPES pH 7.0.
Test [6] has the same target. Put plainly: NADH-menadione reductase assay, absorbance at […] nm. It is filed as biochemical.
Test [7] addresses T1, NQO1 WT (NAD(P)H:quinone oxidoreductase 1). Put plainly: ThermoFAD thermal shift. It is filed as binding. The conditions noted are these: 2 mM BPPSA, 50 mM HEPES pH 7.0.

As to `Cc1cc2nc3c(=O)[nH]c(=O)nc-3n(C[C@H](O)[C@H](O)[C@H](O)COP(=O)(O)OP(=O)(O)OC[C@H]3O[C@@H](n4cnc5c(N)ncnc54)[C@H](O)[C@@H]3O)c2cc1C` [FAD], in test [1], the “crystal structure, 2.76 Å” value was “Clear residual electron density was observed for FAD bound to each of the four chains”.

By IC50 is commonly meant the concentration that gives 50% inhibition. A low value points to inhibition by little substance. With `O=S(=O)(Nc1ccccc1Br)N1CCCC1` [BPPSA, N‐(2‐bromophenyl)pyrrolidine‐1‐sulfonamide], the results for the Kd in test [2] and in test [3] were 20 ± 0.41 µM and 7.95 ± 0.8 µM, respectively. In addition, the IC50 in test [4] was 8.6 ± 1.1 µM; in test [6], 26.2 ± 1.2 µM. Moreover, the figures for the “increase in melting temperature” value in test [5] and in test [7] were 2.5 °C and 1 °C, respectively.
